Columns and labels:
Sclerostin = biological target: T1, Sclerostin (Homo sapiens, UniProt Q9BQB4); assay: FP competition assay; format: binding; settings: FP competition with probe 15 (table footnote)
T1 sequence (Q9BQB4 24-213): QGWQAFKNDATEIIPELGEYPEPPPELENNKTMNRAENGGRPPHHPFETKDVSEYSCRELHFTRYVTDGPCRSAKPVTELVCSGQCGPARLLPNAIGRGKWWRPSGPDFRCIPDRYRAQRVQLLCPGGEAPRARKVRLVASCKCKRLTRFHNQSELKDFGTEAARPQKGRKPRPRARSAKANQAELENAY

[1] = tested on: antithrombine III (AT-III); settings: cited from earlier work
IL-8 = biological target: T2, IL-8 (Homo sapiens, UniProt P10145); assay: FP competition assay; format: binding; settings: FP competition with probe 15 (table footnote)
T2 sequence (P10145 21-99): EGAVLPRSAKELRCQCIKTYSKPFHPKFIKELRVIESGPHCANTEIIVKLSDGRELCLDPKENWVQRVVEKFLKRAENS

BMP-2 = biological target: T3, BMP-2 (Homo sapiens, UniProt P12643); assay: FP competition assay; format: binding; settings: FP competition with probe 15 (table footnote)
T3 sequence (P12643 283-396): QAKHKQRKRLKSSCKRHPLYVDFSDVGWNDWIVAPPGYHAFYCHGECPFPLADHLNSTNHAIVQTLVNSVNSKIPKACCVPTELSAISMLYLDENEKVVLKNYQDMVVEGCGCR

Kd (Sclerostin): 629 ± 335 µM
Kd (IL-8): 19 ± 2.5 µM
Kd (BMP-2): 80.9 ± 8.5 µM
SMILES: CO[C@H]1O[C@H](COS(=O)(=O)O)[C@@H](O[C@@H]2O[C@@H](C(=O)O)[C@@H](O[C@H]3O[C@H](COS(=O)(=O)O)[C@@H](O[C@@H]4O[C@H](C(=O)O)[C@@H](O[C@H]5O[C@H](COS(=O)(=O)O)[C@@H](O)[C@H](O)[C@H]5NS(=O)(=O)O)[C@H](O)[C@H]4O)[C@H](OS(=O)(=O)O)[C@H]3NS(=O)(=O)O)[C@H](O)[C@H]2OS(=O)(=O)O)[C@H](O)[C@H]1NS(=O)(=O)O [Fondaparinux, fondaparinux]
ligand affinity class [1]: nanomolar ligand
